The assay deals with L1210 leukemia ip in BDF1 mice, survival T/C. Kind of assay: NCI In Vivo Anticancer Drug Screen. Data for tumor model L1210 Leukemia (intraperitoneal) in B6D2F1 (BDF1) mice. The note with it: endpoint: mean survival time, higher = longer survival. An outline of the steps:
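Survival endpoint. Drug-treated group vs vehicle group, expressed as T divided by C. Tumor passaged by transplantation.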

Where [1] appears, read: dose: 50.0 mg/kg/injection, schedule: Q01DX001 (ip), vehicle: saline.
The mark [2] stands for this setting: dose: 200.0 mg/kg/injection, schedule: Q01DX001 (ip), vehicle: saline.
Setting [3] is: dose: 400.0 mg/kg/injection, schedule: Q01DX001 (ip), vehicle: saline.
Where [4] appears, read: dose: 200.0 mg/kg/injection, schedule: Q01DX009 (ip), vehicle: Klucel (hydroxypropylcellulose) (HPC).
The mark [5] stands for this setting: dose: 100.0 mg/kg/injection, schedule: Q01DX001 (ip), vehicle: Klucel (hydroxypropylcellulose) (HPC).
The mark [6] stands for this setting: dose: 100.0 mg/kg/injection, schedule: Q04DX003 (ip), vehicle: Klucel (hydroxypropylcellulose) (HPC).
[7] abbreviates: dose: 200.0 mg/kg/injection, schedule: Q04DX003 (ip), vehicle: Klucel (hydroxypropylcellulose) (HPC).
Setting [8] is: dose: 100.0 mg/kg/injection, schedule: Q04DX003 (ip), vehicle: saline with Tween-80.
[9] abbreviates: dose: 200.0 mg/kg/injection, schedule: Q04DX003 (ip), vehicle: saline with Tween-80.
Setting [10] is: dose: 400.0 mg/kg/injection, schedule: Q04DX003 (ip), vehicle: saline with Tween-80.
The mark [11] stands for this setting: dose: 100.0 mg/kg/injection, schedule: Q01DX001 (ip), vehicle: saline.

Several values for one entry are separate records, joined by “and”; a condition that tells them apart may be missing. Identical values can stand only once. Toxic doses and inconclusive results are not listed.

For 18 compounds, T/C results are on record in PubChem BioAssay AID248 (DTP/NCI, 2004).

For the compound `CN(C)/N=N/c1ncn[nH]1`, the T/C (dose: 3.0 mg/kg/injection, schedule: Q01DX009 (ip), vehicle: saline) is 117 % of control; the T/C (dose: 6.0 mg/kg/injection, schedule: Q01DX009 (ip), vehicle: saline) is 114 % of control; the T/C (dose: 12.5 mg/kg/injection, schedule: Q01DX001 (ip), vehicle: saline) is 104 % of control; the T/C (dose: 12.5 mg/kg/injection, schedule: Q01DX009 (ip), vehicle: saline) is 151 % of control; the T/C (dose: 12.5 mg/kg/injection, schedule: Q04DX003 (ip), vehicle: saline) is 120 % of control; the T/C (dose: 22.0 mg/kg/injection, schedule: Q04DX003 (ip), vehicle: saline) is 123 % of control. The T/C is, setting by setting: (dose: 25.0 mg/kg/injection, schedule: Q01DX001 (ip), vehicle: saline) 108 % of control; (dose: 25.0 mg/kg/injection, schedule: Q01DX009 (ip), vehicle: saline) 203 % of control; under setting [1], 116 % of control; (dose: 50.0 mg/kg/injection, schedule: Q01DX009 (ip), vehicle: saline) 115 % of control; under setting [2], 155 % of control; under setting [3], 91 % of control.

`Cc1cc(C)nc(NS(=O)(=O)c2ccc(N=Nc3nc4[nH]c(N)nc(=S)c4[nH]3)cc2)n1`: the T/C is, setting by setting: (dose: 6.25 mg/kg/injection, schedule: Q01DX009 (ip), vehicle: Klucel (hydroxypropylcellulose) (HPC)) 151 % of control and 177 % of control; (dose: 12.5 mg/kg/injection, schedule: Q01DX009 (ip), vehicle: Klucel (hydroxypropylcellulose) (HPC)) 153 % of control; (dose: 25.0 mg/kg/injection, schedule: Q01DX009 (ip), vehicle: Klucel (hydroxypropylcellulose) (HPC)) 112 % of control; under setting [4], 102 % of control.

For `O=C(O)c1ccc([N+](=O)[O-])cc1P(=O)(O)O`, under “dose: 75.0 mg/kg/injection, schedule: Q04DX003 (ip), vehicle: saline with Tween-80”, the T/C is 103 % of control.

On to `Nc1ncnc(N)c1NC(=O)c1ccc([N+](=O)[O-])cc1`, for which the T/C is, setting by setting: (dose: 25.0 mg/kg/injection, schedule: Q01DX001 (ip), vehicle: Klucel (hydroxypropylcellulose) (HPC)) 93 % of control; (dose: 50.0 mg/kg/injection, schedule: Q01DX001 (ip), vehicle: Klucel (hydroxypropylcellulose) (HPC)) 89 % of control; under setting [5], 102 % of control.

Regarding `CC(c1ccccc1C(=O)O)c1ccc(Br)c2ccccc12` (configuration not stated), the T/C by setting is: (dose: 50.0 mg/kg/injection, schedule: Q04DX003 (ip), vehicle: Klucel (hydroxypropylcellulose) (HPC)) 93 % of control; under setting [6], 108 % of control; under setting [7], 98 % of control.

With `CCO/C=C(\C#N)C(=O)O`, the T/C by setting is: (dose: 100.0 mg/kg/injection, schedule: Q01DX009 (ip), vehicle: saline with Tween-80) 95 % of control; under setting [8], 98 % of control; (dose: 200.0 mg/kg/injection, schedule: Q01DX009 (ip), vehicle: saline with Tween-80) 98 % of control; under setting [9], 104 % of control; (dose: 400.0 mg/kg/injection, schedule: Q01DX009 (ip), vehicle: saline with Tween-80) 102 % of control; under setting [10], 100 % of control.

Take `C[C@@H]1CC[C@@]2(NC1)O[C@H]1C[C@H]3[C@@H]4CC=C5C[C@@H](O)CC[C@]5(C)[C@H]4CC[C@]3(C)[C@H]1[C@@H]2C`: the T/C is 91 % of control (dose: 5.0 mg/kg/injection, schedule: Q01DX Z (sc), vehicle: steriod suspending solution); 100 % of control (dose: 10.0 mg/kg/injection, schedule: Q01DX Z (sc), vehicle: steriod suspending solution); 96 % of control (dose: 20.0 mg/kg/injection, schedule: Q01DX Z (sc), vehicle: steriod suspending solution); 98 % of control (dose: 40.0 mg/kg/injection, schedule: Q01DX Z (sc), vehicle: steriod suspending solution); 95 % of control (dose: 50.0 mg/kg/injection, schedule: Q01DX009 (ip), vehicle: saline sonified); 94 % of control (dose: 100.0 mg/kg/injection, schedule: Q01DX009 (ip), vehicle: saline sonified). In addition, the T/C was 94 % of control under setting [6]; 90 % of control (dose: 200.0 mg/kg/injection, schedule: Q01DX009 (ip), vehicle: saline sonified); 99 % of control under setting [7].

Consider `CCOC(=O)c1ccc(N(CC(N)O)S(=O)(=O)c2ccc(C)cc2)cc1` (configuration not stated), for which the T/C is 96 % of control (dose: 12.5 mg/kg/injection, schedule: Q01DX009 (ip), vehicle: saline with Tween-80); 98 % of control (dose: 25.0 mg/kg/injection, schedule: Q01DX009 (ip), vehicle: saline with Tween-80); 98 % of control (dose: 50.0 mg/kg/injection, schedule: Q01DX009 (ip), vehicle: saline with Tween-80).

Consider `CCOC(=O)N/N=C(\C)c1ccc(OC)cc1`, for which the T/C runs as follows: (dose: 100.0 mg/kg/injection, schedule: Q01DX009 (ip), vehicle: Klucel (hydroxypropylcellulose) (HPC)) 98 % of control; under setting [4], 112 % of control.

For the compound `CC1(C)C(=O)C(O)=C[C@@]2(C)C1=CC[C@H]1[C@@H]3CC[C@H](O)[C@@]3(C)CC[C@@H]12`, the T/C is, setting by setting: (dose: 100.0 mg/kg/injection, schedule: Q01DX001 (sc), vehicle: steriod suspending solution) 97 % of control; (dose: 200.0 mg/kg/injection, schedule: Q01DX001 (sc), vehicle: steriod suspending solution) 104 % of control; (dose: 400.0 mg/kg/injection, schedule: Q01DX001 (sc), vehicle: steriod suspending solution) 97 % of control.

Consider `O=C(O)c1ccccc1C(=O)c1cccs1`, for which the T/C (dose: 100.0 mg/kg/injection, schedule: Q01DX009 (ip), vehicle: saline) was 94 % of control; the T/C (dose: 100.0 mg/kg/injection, schedule: Q04DX003 (ip), vehicle: other) was 113 % of control; the T/C (dose: 200.0 mg/kg/injection, schedule: Q01DX009 (ip), vehicle: saline) was 97 % of control; the T/C (dose: 200.0 mg/kg/injection, schedule: Q04DX003 (ip), vehicle: other) is 105 % of control; the T/C (dose: 400.0 mg/kg/injection, schedule: Q01DX009 (ip), vehicle: saline) is 96 % of control; the T/C (dose: 400.0 mg/kg/injection, schedule: Q04DX003 (ip), vehicle: other) was 94 % of control.

On to `CC(=O)OCc1ccc(O)c2ncccc12`, for which the T/C is, setting by setting: (dose: 75.0 mg/kg/injection, schedule: Q01DX001 (ip), vehicle: carboxymethylcellulose (CMC)) 96 % of control; (dose: 150.0 mg/kg/injection, schedule: Q01DX001 (ip), vehicle: carboxymethylcellulose (CMC)) 100 % of control.

Consider `CCCCN(CCCC)/N=N/c1nc[nH]c1C(=O)OC`, for which the T/C runs as follows: (dose: 100.0 mg/kg/injection, schedule: Q01DX001 (ip), vehicle: other) 97 % of control; (dose: 200.0 mg/kg/injection, schedule: Q01DX001 (ip), vehicle: other) 97 % of control.

Regarding `CSc1nc2nc[nH]c(=O)c2cc1C#N`, the T/C is, setting by setting: under setting [5], 91 % of control; (dose: 200.0 mg/kg/injection, schedule: Q01DX001 (ip), vehicle: Klucel (hydroxypropylcellulose) (HPC)) 96 % of control; (dose: 400.0 mg/kg/injection, schedule: Q01DX001 (ip), vehicle: Klucel (hydroxypropylcellulose) (HPC)) 106 % of control.

For `O=C(CC1CCCCC1O)Nc1ccccc1` (configuration not stated), the T/C under setting [1] was 97 % of control, the T/C under setting [11] was 95 % of control, the T/C under setting [2] was 101 % of control and the T/C under setting [3] was 97 % of control.

In the case of `CCN1C(=O)C2C3C=CC(C3)C2C1=O` (configuration not stated), the T/C was 97 % of control (dose: 25.0 mg/kg/injection, schedule: Q04DX003 (ip), vehicle: saline with Tween-80) and 104 % of control (dose: 50.0 mg/kg/injection, schedule: Q04DX003 (ip), vehicle: saline with Tween-80).

With `COC(OC)C1OC(C)(C)OC1C(OS(=O)(=O)c1ccc(C)cc1)C1COC(C)(C)O1` (configuration not stated), the T/C under setting [8] is 97 % of control, the T/C under setting [9] was 91 % of control and the T/C under setting [10] is 89 % of control.

With `O=C(CCCC(=O)NNC(=O)Nc1ccc(Br)cc1)NNC(=O)Nc1ccc(Br)cc1`, the T/C by setting is: under setting [1], 93 % of control; under setting [11], 100 % of control; under setting [2], 96 % of control; under setting [3], 96 % of control.
